Laboratory results from patent US20130023504A1, “Modulation of Prostaglandin/Cyclooxygenase Metabolic Pathways” (HUNTER-FLEMING LIMITED, priority 2006, published 2013).
Marks after values point to notes of the source that are not given here.

What was measured:
[1] = test system: human peripheral blood mononuclear cells; experiment: Prostaglandin (PGD2, PGE2, 15d-PGJ2) production by human peripheral blood mononuclear cells with/without TNF-α, EIA (Example 2); assay type: cell-based
Description: Mononuclear cells (monocytes and lymphocytes) were prepared by subjecting 48 ml of whole human blood to Ficoll/hypaque density centrifugation. Blood was layered on top of the ficoll (density=1.077 g/ml) and centrifuged at 400 g for 1 hour (22° C.), after which cells at the interphase were removed by pipette and transferred to fresh tubes. Tubes were filled with RPMI 1640 culture medium (2 volumes) thoroughly mixed and then centrifuged at 400 g for 5 minutes (22° C.). The supernatant was discarded and the cell pellet was re-suspended in RPMI 1640 culture medium and the volume adjusted to give the appropriate number of cells per incubation as indicated in the results section below. Cells were incubated in sterile plastic 1.5 ml tubes in a final volume of 1 ml RPMI 1640 medium for 18 hours at 37° C., 5% CO2 in air and 100% humidity. 7β-OH-EPIA was then added and cells incubated for a further hour at 37° C. before adding recombinant human Tumour Necrosis Factor-α (TNF-α) and incubations continued for a further 3 hours. 7β-OH-EPIA was prepared in dimethyl sulphoxide (DMSO), all remaining agents were prepared in RPMI 1640 medium. The requisite controls contained either medium or the same concentration of DMSO which was always <0.1% v/v. Incubations were terminated by centrifuging tubes at 11,000 g for 30 seconds at 22° C. and transferring the supernatants to fresh 1.5 ml tubes. Samples were then either processed immediately for PGD2 estimation as described below or stored at −20° C. prior to PGE2 or 15d-PGJ2 measurement.
Prostaglandin production by human monocytic cells in response to 7β-OH-EPIA in either the absence or presence of stimulation with TNF-α was determined by measuring the extracellular levels of eicosanoid using commercially available EIA kits.
PGD2 cannot be assayed directly from cell supernatants because it is chemically unstable and rapidly degrades to a number of J series prostaglandins including, PGJ2, Δ^12-PGJ2, and 15-deoxy-Δ^12,14-PGJ2. In order to circumvent this problem, unstable PGD2 was chemically treated to give a stable derivative, in this case prostaglandin D2-Methoxamine (PGD2-MOX) which was be stored for subsequent analysis. Immediately following termination of incubations, 100 μl of sample supernatant was added to 1.5 ml tubes containing 100 μl of a Methyl Oximating Reagent (methoxy)amine hydrochloride (MOX-HCl) and sodium acetate dissolved in a 10:90 v/v, ethanol/water solution. Tubes were then placed in a water bath and the reaction allowed to proceed for 30 minutes at 60° C. At the end of this period samples were stored at −80° C. Levels of PGD2 were subsequently estimated using Cayman Chemical's Prostaglandin D2-MOX EIA Kit (Cat. No. 512011).
Extracellular levels of PGE2 were estimated using R & D Systems' Parameter PGE2 EIA Kit according to the manufacturer's instructions for the high sensitivity protocol.
Extracellular levels of 15d-PGJ2 were estimated using Assay Designs' Correlate-EIA Prostaglandin 15-deoxy-Δ^12,14-prostaglandin J2 EIA Kit (Cat. No. 900-023) according to the manufacturer's instructions.
Results are expressed as the mean±s.d. for n=3 incubations. An unpaired Students t-Test was used to determine the probability (P) that two sets of data were different from each other. The difference was considered to be significant when P<0.05. Statistical calculations were carried out on an Apple Macintosh computer using the software package Statview, from Abacus Concepts Inc.

[2] = test system: m-PGES1 mRNA; experiment: m-PGES1 mRNA in human PBMC with and without TNF-α, quantitative RT-PCR; assay type: cell-based
Description: Whole blood was collected from donors in EDTA-supplemented pouches at the Etablissement Français du Sang (Brest, France). The PBMC were isolated then from whole blood under sterile conditions within 36 hours after collection. Gradient density centrifugation was carried out on Ficoll (Eurobio). After washing in RPMI 1640 medium (Eurobio), cells were suspended in RPMI 1640 medium supplemented with 10% heat-inactivated fetal calf serum (Eurobio), 2 mM glutamine (D. Dutscher), 100 U of penicillin/ml (D. Dutscher), and 100 μg of streptomycin/ml (D. Dutscher). Monocytes were selected by plastic adherence for 1 h and approximately 10^7 cells were plated in 6-well tissue culture plates (3 mL medium per well). All incubations were performed in a humidified incubator at 37° C. and 5% CO2. Cells were recovered and dispersed in 2 ml fresh incubation medium supplemented with either 7β-hydroxyEPIA, 7β-hydroxy-DHEA, or 7α-hydroxy-DHEA (in 20 μL ethanol) in the presence or absence of 0.01 μg/mL TNF-α (Sigma-Aldrich). Control incubations contained 20 μl ethanol but no steroid. Supernatants were collected after 4 h and 24 hours incubations for measurement of their PG contents and cells were used for subsequent RNA isolation. A single step extraction method using the Trizol Reagent (Invitrogen, Cergy-Pontoise, France) provided total RNA.
cDNAs were synthesized from TURBO DNase I—treated RNA (Ambion, Huntingdon, UK) using the Superscript first strand synthesis system kit (Invitrogen). RT-PCR amplification mixtures (50 μL) contained 2.5× RealMaster Mix/20×SYBR solution (11.25 μL) (Eppendorf, Le Pecq, France) and 200 nM forward and reverse primers. Reactions were run on a RealPlex ep gradient S mastercycler (Eppendorf). The cycling conditions were 10 minutes at 95° C. and 45 cycles at 95° C., 55° C. and 68° C. for 15 seconds, 30 seconds and 30 seconds, respectively. Each assay included a standard curve of four serial dilution points of control cDNA. The HPRT1 housekeeping gene was used for quantification. All oligonucleotide primers (Table 2) were synthesized by Genecust/Distribio (Evry, France). The specificity of the amplified product was monitored by examining the melting curve of the product and confirmed by analysis on agarose gel electrophoresis.
All assays were carried out in triplicate and results were plotted as mean±S.E.M. One-way analysis of variance was performed followed by Duncan's multiple range tests in order to compare the differences between groups. Differences were considered statistically significant when p<0.05.

SMILES: CC12CCC3C(C1CCC2=O)[C@@H](O)C[C@H]1C[C@@H](O)CCC31C (stereo partly drawn) [Compound 7β-OH-EPIA, 7β-hydroxy-EPIAndrosterone]
- effect on TNF-α-induced PGD2 biosynthesis ([1]; 0.1 nM-100 nM, TNF-α (0.5 μg/ml)): no effect
- increase in 15d-PGJ2 production ([1]; 0.1 nM-1000 nM, in the presence of TNF-α, vs respective control): 2-2.5 fold
- increase in 15d-PGJ2 levels ([1]; 0.1 nM-1000 nM, without TNF-α, vs DMSO controls): 9-12 fold
- 15d-PGJ2 levels in cell supernatants ([1]; 0.1 nM, 4 hours, without TNF-α): 506 ± 101 pg/mL
- 15d-PGJ2 levels in cell supernatants ([1]; 0.1 nM, TNF-α (10 ng/ml)): 348 ± 48 pg/mL
- PGE2 levels compared to DMSO controls ([1]; 1 nM-1000 nM, 4 hours, without TNF-α): not statistically significantly different
- 15d-PGJ2 levels in cell supernatants ([1]; 1 nM, 4 hours, without TNF-α): 539 ± 51 pg/mL
- 15d-PGJ2 levels in cell supernatants ([1]; 1 nM, TNF-α (10 ng/ml)): 334 ± 24 pg/mL
- PGE2 levels in cell supernatants ([1]; 1 nM, TNF-α (10 ng/ml)): 75 ± 25 pg/mL
- 15d-PGJ2 levels in cell supernatants ([1]; 10 nM, 4 hours, without TNF-α): 520 ± 45 pg/mL
- 15d-PGJ2 levels in cell supernatants ([1]; 10 nM, TNF-α (10 ng/ml)): 356 ± 85 pg/mL
- PGE2 levels in cell supernatants ([1]; 10 nM, TNF-α (10 ng/ml)): 82 ± 23 pg/mL
- 15d-PGJ2 levels in cell supernatants ([1]; 100 nM, 4 hours, without TNF-α): 450 ± 133 pg/mL
- PGD2 levels in cell supernatants ([1]; 100 nM, 4 hours, without TNF-α): 102 ± 24 pg/mL
- 15d-PGJ2 levels in cell supernatants ([1]; 100 nM, TNF-α (10 ng/ml)): 406 ± 30 pg/mL
- PGE2 levels in cell supernatants ([1]; 100 nM, TNF-α (10 ng/ml)): 74 ± 12 pg/mL
- 15d-PGJ2 levels in cell supernatants ([1]; 1000 nM, 4 hours, without TNF-α): 590 ± 84 pg/mL
- 15d-PGJ2 levels in cell supernatants ([1]; 1000 nM, TNF-α (10 ng/ml)): 318 ± 100 pg/mL
- effect on TNF-α-induced PGE2 production ([1]; 1000 nM, TNF-α (10 ng/ml)): no effect
- PGD2 levels in cell supernatants ([1]; 1000 nM, TNF-α (0.5 μg/ml)): 164 ± 31 pg/mL
- mPGES1 (mRNA), mRNA production relative to controls ([2]; 1 nM + TNF-α (10 ng/mL), 4 h): 1.11 ± 0.235
- mPGES1 (mRNA), mRNA production relative to controls ([2]; 1 nM + TNF-α (10 ng/mL), 24 h): 21.6 ± 4.28^
- mPGES1 (mRNA), mRNA production relative to controls ([2]; 1 nM, 4 h, without TNF-α): 0.76 ± 0.053^b
- mPGES1 (mRNA), mRNA production relative to controls ([2]; 1 nM, 24 h, without TNF-α): 1.77 ± 0.324^a
- mPGES1 (mRNA), mRNA production relative to controls ([2]; 10 nM + TNF-α (10 ng/mL), 4 h): 1.15 ± 0.183
- mPGES1 (mRNA), mRNA production relative to controls ([2]; 10 nM + TNF-α (10 ng/mL), 24 h): 6.29 ± 1.131^d
- mPGES1 (mRNA), mRNA production relative to controls ([2]; 10 nM, 4 h, without TNF-α): 0.94 ± 0.067
- mPGES1 (mRNA), mRNA production relative to controls ([2]; 10 nM, 24 h, without TNF-α): 3.61 ± 0.662^a
- mPGES1 (mRNA), mRNA production relative to controls ([2]; 100 nM + TNF-α (10 ng/mL), 4 h): 1.29 ± 0.323
- mPGES1 (mRNA), mRNA production relative to controls ([2]; 100 nM + TNF-α (10 ng/mL), 24 h): 6.79 ± 2.898^d
- mPGES1 (mRNA), mRNA production relative to controls ([2]; 100 nM, 4 h, without TNF-α): 0.71 ± 0.058^b
- mPGES1 (mRNA), mRNA production relative to controls ([2]; 100 nM, 24 h, without TNF-α): 2.63 ± 0.475^a
